In patent US12414996B2, “Organic anion transporting peptide-based cancer imaging and therapy” (Da Zen Theranostics, Inc., priority 2014, dated 2025):

Tests used:
cancer = assay: In vivo cancer targeting of heptamethine cyanine dye derivatives (Nuclear/NIR imaging); conditions: tumor specific uptake by Nuclear/NIR imaging
Description: The inventor synthesized several heptamethine cyanine dye derivatives (Table 1) and evaluated the tumor specific uptake using Nuclear/NIR imaging.

C4-2B [1] = assay: Tumor cell growth inhibition IC50, C4-2B; type: cell-based; conditions: Prostate Cancer cell line C4-2B; read-out: Half maximal inhibitory concentration (IC50) C4-2B
Description: (§1) In addition to DZ-1-Gem, some agents of the invention may include other antitumor active moieties, such as cisplatin. For example, the tumor cell growth inhibition activities of DZ-1 linked with cisplatin (“DZ-1-cisplatin”) were compared with those of cisplatin alone in various tumor cells, including prostate, breast, renal, kidney, and lung cancer cell lines.

Hep G2 = assay: Tumor cell growth inhibition IC50, Hep G2; type: cell-based; conditions: Hepatic Cancer cell line Hep G2; read-out: Half maximal inhibitory concentration (IC50) Hep G2
H358 = assay: Tumor cell growth inhibition IC50, H358; type: cell-based; conditions: Lung Cancer cell line H358; read-out: Half maximal inhibitory concentration (IC50) H358
Description: as §1

ACHN = assay: Tumor cell growth inhibition IC50, ACHN; type: cell-based; conditions: Renal Cancer cell line ACHN; read-out: Half maximal inhibitory concentration (IC50) ACHN
Description: as §1

PC3 = assay: Tumor cell growth inhibition IC50, PC3; type: cell-based; conditions: Prostate Cancer cell line PC3; read-out: Half maximal inhibitory concentration (IC50) PC3
Description: as §1

LNCaP [2] = assay: Tumor cell growth inhibition IC50, LNCaP; type: cell-based; conditions: Prostate Cancer cell line LNCaP; read-out: Half maximal inhibitory concentration (IC50) LNCaP
Description: as §1

LNCaP [3] = assay: Cytotoxicity (IC50) on cancer cell growth in vitro, LNCaP; type: cell-based, human; conditions: LNCaP prostate cancer cells in culture
C4-2B [4] = assay: Cytotoxicity (IC50) on cancer cell growth in vitro, C4-2B; type: cell-based, human; conditions: C4-2B prostate cancer cells in culture
PC-3 = assay: Cytotoxicity (IC50) on cancer cell growth in vitro, PC-3; type: cell-based, human; conditions: PC-3 prostate cancer cells in culture
MiaPaCa II = assay: Cytotoxicity (IC50) on cancer cell growth in vitro, MiaPaCa II; type: cell-based, human; conditions: MiaPaCa II pancreatic cancer cells in culture
C4-2 = assay: Cytotoxicity (IC50) on cancer cell growth in vitro, C4-2; type: cell-based, human; conditions: C4-2 prostate cancer cells in culture
BX-PC3 = assay: Cytotoxicity (IC50) on cancer cell growth in vitro, BX-PC3; type: cell-based, human; conditions: BX-PC3 pancreatic cancer cells in culture
pancreatic PDX tumors = assay: Uptake of NIR dye by pancreatic PDX tumors implanted in mouse subrenal capsules; type: in vivo; conditions: subrenal capsule implant
Description: (A) NIR fluorescent imaging of mouse bearing human pancreatic PDX tumors in subrenal capsules (excitation: 783 nm; […] nm) (B) Ex vivo bright field and NIR fluorescent imaging of pancreatic PDX tumors in the kidney capsules and other organs harvested from mouse and (C) the NIR fluorescent intensity was quantified for the tumor and for each organ (total radiance efficiency [p/s]/[μW/cm^2]) (D) Fluorescent microscopy of DAPI, NIR, and merged images of frozen section of pancreatic PDX tumor in the kidney capsule. White dash line outlines the mouse kidney and red dash line outlines the pancreatic PDX tumor.
The uptakes of NIR dye MHI-148, by pancreatic patient-derived xenografts (PDX) tumors implanted in mouse subrenal capsules were investigated. […] White dash line outlines the mouse kidney and red dash line outlines the pancreatic PDX tumor.

prostate PDX tumors = assay: Uptake of NIR dye by prostate PDX tumors implanted in mouse subrenal capsules; type: in vivo; conditions: i.p., imaging after 48 hours, excitation 783 nm, emission 840 nm
Description: (A) Representative NIR fluorescence imaging of control mouse with no tumor and mouse with sham-operation and PCa implantation in the subrenal capsules of the kidneys. Mice were injected i.p with NIR dye, MHI-148, 48 hours before fluorescence imaging at excitation of 783 nm and emission of 840 nm. […] (B) Representative ex vivo NIR fluorescence imaging of kidneys with sham operation and PCa tumor implantations. NIR fluorescence signal was only detected in the growing PCa tumors implanted in the subrenal capsule of the right kidney. (C) Fluorescent microscopy of DAPI, NIR, and merged images of frozen sections of the human PCa tumor and the mouse kidney from the subrenal xenograft model (200× magnification) (D) Representative H&E staining of the PCa tumors implanted in the mouse kidney capsule (40× magnification; inlet: 400× magnification).
The uptakes of NIR dye MHI-148 by prostate PDX tumors implanted in mouse subrenal capsules were investigated. […] Mice were injected i.p with NIR dye, MHI-148. After 48 hours, fluorescence imaging was performed with an excitation of 783 nm and emission of 840 nm. […] NIR fluorescence signal was only detected in the growing prostate cancer tumors implanted in the subrenal capsule of the right kidney.

MCF-7 = assay: Tumor cell growth inhibition IC50, MCF-7; type: cell-based; conditions: Breast Cancer cell line MCF-7; read-out: Half maximal inhibitory concentration (IC50) MCF-7
Description: as §1

[5] = test system: prostate cancer PC3 tumors; assay: Uptake by prostate cancer PC3 tumors in mice (NIR imaging); type: in vivo; conditions: for uptake by PC3 tumor in mice: 100 nmole i.p., imaged 48 hours thereafter
MIAPaCa tumors = conditions: 10 mg/kg; subcutaneous luc-tagged MIAPaCa tumors; in vivo and ex vivo imaging
intracranial U87 tumor = conditions: 10 mg/kg, twice a week
Description: (§2) (A) Uptake of DZ-1-Gem (5 μM, 10 min) by U87 and CW22Rv1 cells. IR-783 was used a positive control in parallel. Scale bar represents 50 μm. (B) Proliferation of U87 cells treated with vehicle, gemcitabine (200 nM) or DZ-1-Gem (200 nM) for 4 consecutive days.
(§3) In these experiments, cells were fixed and stained with crystal violet, and OD value at the wavelength of 595 nm was determined (n=5 for each experimental group, mean±SEM) *p<0.05, **p<0.01.

U87 cells [6] = conditions: 200 nM, 4 consecutive days
Description: as §2, §3

pancreatic MIAPaCa cells = conditions: DZ-1-gemcitabine 10 mg/kg vs gemcitabine 2.5 mg/kg, twice a week i.p.
Description: (§4) Arrows indicate the onset of treatments. * p<0.05; ** p<0.01; *** p<0.001.
as §4

[7] = test system: prostate cancer PC3 cells; conditions: DZ-1-gemcitabine 10 mg/kg vs gemcitabine 2.5 mg/kg, twice a week i.p.
Description: as §4, §4

[8] = test system: CW22Rv1 prostate tumor brain metastases; assay: Survival of mice bearing CW22Rv1 prostate tumor brain metastases (Kaplan-Meier); type: in vivo; conditions: 10 mg/kg, twice a week; p<0.001 (log-rank test) vs vehicle
Description: (§5) IR-783 was used a positive control in parallel. Scale bar represents 50 μm.

U87 cells [9] = conditions: 5 μM, 10 min
Description: as §2, §5

CW22Rv1 cells = conditions: 5 μM, 10 min
Description: as §2, §5

CC1(C)C(/C=C/C2=C(Cl)C(=C/C=C3/N(CCCCCC(=O)O)c4ccccc4C3(C)C)/CCC2)=[N+](CCCCS(=O)(=O)[O-])c2ccccc21
Cancer targeting (cancer): Positive

CC1(C)C(/C=C/C2=C(SCCC(=O)Nc3ccn(C4OC(CO)C(O)C4(F)F)c(=O)n3)C(=C/C=C3/N(CCCCS(=O)(=O)O)c4ccccc4C3(C)C)/CCC2)=[N+](CCCCS(=O)(=O)[O-])c2ccccc21 (stereo not drawn)
Cancer targeting (cancer): Negative

CC1(C)C(/C=C/C2=C(Cl)C(=C/C=C3/N(CCCCCC(=O)O)c4ccccc4C3(C)C)/CCC2)=[N+](CCCCCC(=O)O)c2ccccc21
Cancer targeting (cancer): Positive

CC1(C)C(/C=C/C2=C(NCCCC(=O)O)C(=C/C=C3/N(CCCCS(=O)(=O)O)c4ccccc4C3(C)C)/CCC2)=[N+](CCCCS(=O)(=O)[O-])c2ccccc21
Cancer targeting (cancer): Negative

CC1(C)C(/C=C/C2=C(Cl)C(=C/C=C3/N(CCCCS(=O)(=O)O)c4ccccc4C3(C)C)/CCC2)=[N+](CCCCS(=O)(=O)[O-])c2ccccc21
Cancer targeting (cancer): Positive

CC1(C)C(/C=C/C2=C(Cl)C(=C/C=C3/N(CCCCCC(=O)NCCCCC(NC(=O)CN4CCN(CC(=O)O)CCN(CC(=O)O)CCN(CC(=O)O)CC4)C(=O)O)c4ccccc4C3(C)C)/CCC2)=[N+](CCCCS(=O)(=O)[O-])c2ccccc21 (stereo not drawn)
Cancer targeting (cancer): Positive

CC1(C)C(/C=C/C2=C(Cl)C(=C/C=C3/N(CCCCCC(=O)Nc4ccn(C5OC(CO)C(O)C5(F)F)c(=O)n4)c4ccccc4C3(C)C)/CCC2)=[N+](CCCCS(=O)(=O)[O-])c2ccccc21 (stereo not drawn)
Cancer targeting (cancer): Positive

CC1(C)C(/C=C/C2=C(Cl)C(=C/C=C3/N(CCCCCC(=O)Nc4ccc(CC5CN(CC(=O)O)CCN(CC(=O)O)CCN5CC(=O)O)cc4)c4ccccc4C3(C)C)/CCC2)=[N+](CCCCS(=O)(=O)[O-])c2ccccc21 (stereo not drawn)
Cancer targeting (cancer): Positive

CC1(C)C(/C=C/C2=C(SCCCC(=O)O)C(=C/C=C3/N(CCCCS(=O)(=O)O)c4ccccc4C3(C)C)/CCC2)=[N+](CCCCS(=O)(=O)[O-])c2ccccc21
Cancer targeting (cancer): Negative

CCC(=[N][Pt]([NH2])([NH2])[Cl])N(C)CCNC(=O)CCCCCN1/C(=C/C=C2\CCCC(/C=C/C3=[N+](CCCCS(=O)(=O)[O-])c4ccccc4C3(C)C)=C2Cl)C(C)(C)c2ccccc21
Cancer targeting (cancer): Positive

N.N.[Cl][Pt][Cl] [Cisplatin, reference compound]
IC50 (C4-2B [1]): > 50000 nM | IC50 (Hep G2): > 50000 nM | IC50 (H358): > 50000 nM | IC50 (ACHN): 28700 nM | IC50 (PC3): > 50000 nM | IC50 (LNCaP [2]): > 50000 nM

C#CCN(C)CCCOc1ccc(Cl)cc1Cl [Clorgyline]
IC50 (LNCaP [3]): 81000 nM | IC50 (C4-2B [4]): 114000 nM | IC50 (PC-3): 120000 nM

CC(=O)O[C@@]12CO[C@@H]1C[C@H](O)[C@@]1(C)C(=O)[C@H](O)C3=C(C)[C@@H](OC(=O)[C@H](O)[C@@H](NC(=O)OC(C)(C)C)c4ccccc4)C[C@@](O)([C@@H](OC(=O)c4ccccc4)[C@H]21)C3(C)C [Docetaxel]
IC50 (LNCaP [3]; Homo sapiens): 10 nM | IC50 (MiaPaCa II; Homo sapiens, MIA PaCa-2): 6 nM | IC50 (C4-2; Homo sapiens): 3200 nM | IC50 (PC-3; Homo sapiens): 330 nM | IC50 (BX-PC3; Homo sapiens, BXPC-3): 7 nM

Nc1ccn([C@@H]2O[C@H](CO)[C@@H](O)C2(F)F)c(=O)n1 [Gemcitabine]
IC50 (LNCaP [3]; Homo sapiens): 250 nM | IC50 (MiaPaCa II; Homo sapiens, MIA PaCa-2): 22 nM | IC50 (C4-2; Homo sapiens): 85 nM | IC50 (PC-3; Homo sapiens): 380 nM | IC50 (BX-PC3; Homo sapiens, BXPC-3): 135 nM

CC1(C)C(/C=C/C2=C(Cl)C(=C/C=C3\N(CCCCCC(=O)O)c4ccccc4C3(C)C)/CCC2)=[N+](CCCCCC(=O)O)c2ccccc21 [MHI-148]
uptake of NIR dye in pancreatic PDX tumor vs mouse kidney (fluorescent microscopy of frozen section) (pancreatic PDX tumors): Only the pancreatic tumor uptakes the NIR dye | NIR fluorescence signal (uptake) in prostate PDX tumor vs sham-operated kidney and control mouse (prostate PDX tumors): Only the prostate cancer tumor implanted in the subrenal capsule of the right kidney showed the NIR fluorescence signal

IR-783-N1-methylethylenediamine-cisplatin [DZ-1-cisplatin]
IC50 (C4-2B [1]): 15900 nM | IC50 (Hep G2): > 50000 nM | IC50 (MCF-7): 13100 nM | uptake by PC3 tumor in mice [5]: accumulate only in the tumor cells, but not in the normal organs | IC50 (H358): 4950 nM | IC50 (ACHN): 4030 nM | IC50 (PC3): 7570 nM | IC50 (LNCaP [2]): 21600 nM

IR-783-gemcitabine [DZ-1-gemcitabine]
uptake by MIAPaCa tumors vs normal organs (MIAPaCa tumors): specifically by prostate and pancreatic tumors but not normal organs | IC50 (LNCaP [3]): 340 nM | intracranial U87 tumor growth (bioluminescence) (intracranial U87 tumor): effectively suppressed tumor growth, resulting in no bioluminescence | inhibition of U87 cell proliferation (U87 cells [6]): as effective as Gem | prevention and inhibition of subcutaneous MIAPaCa tumor growth (tumor volume) (pancreatic MIAPaCa cells): more effective than Gemcitabine | prevention and inhibition of subcutaneous PC3 tumor growth (tumor volume) [7]: more effective than Gemcitabine | survival of mice [8]: significantly improved survival | IC50 (MiaPaCa II): 85 nM | uptake by PC3 tumor in mice [5]: accumulate only in the tumor cells, but not in the normal organs | uptake by PC3 tumors vs normal organs ([5]; 10 mg/kg, subcutaneous luc-tagged PC3 tumors, in vivo and ex vivo imaging): specifically by prostate and pancreatic tumors but not normal organs | IC50 (C4-2): 93 nM | IC50 (PC-3): 420 nM | IC50 (BX-PC3): 230 nM | uptake by U87 cells (U87 cells [9]): readily taken up | uptake by CW22Rv1 cells (CW22Rv1 cells): readily taken up
